Measured values as given in paper PMC9501633, “Synthesis, Characterisation and Mechanism of Action of Anticancer 3-Fluoroazetidin-2-ones” (Pharmaceuticals, 2022).

How the values were obtained:
UACC-257 = assay: NCI 60 cell line screen, Melanoma; assay type: cell-based, human
SF-268 = assay: NCI 60 cell line screen, CNS; assay type: cell-based, human
SK-MEL-5 = assay: NCI 60 cell line screen, Melanoma; assay type: cell-based, human
DU-145 = assay: NCI 60 cell line screen, Prostate; assay type: cell-based, human
HOP-92 = assay: NCI 60 cell line screen, NSCLung; assay type: cell-based, human
SF-539 = assay: NCI 60 cell line screen, CNS; assay type: cell-based, human
RXF 393 = assay: NCI 60 cell line screen, Renal; assay type: cell-based, human
SK-MEL-28 = assay: NCI 60 cell line screen, Melanoma; assay type: cell-based, human
MALME-3M = assay: NCI 60 cell line screen, Melanoma; assay type: cell-based, human
BT-549 = assay: NCI 60 cell line screen, Breast; assay type: cell-based, human
leukaemia panel = assay: NCI 60 cell line one-dose screen, panel mean; assay type: cell-based; details: Homo sapiens, one dose 10 μM, read-out: mean growth inhibition
Method: The antiproliferative effects of selected compounds 33, 37 and 43 were initially evaluated in the NCI 60 cell line screen at 10 μM concentration (see Supplementary Materials Table S3).
aData obtained from NCI in vitro human tumour cell screen 1 dose assay (10 µM). 33 (NCI

NCI-H460 = assay: NCI 60 cell line screen, NSCLung; assay type: cell-based, human
HT29 = assay: NCI 60 cell line screen, Colon; assay type: cell-based, human
SK-OV-3 = assay: NCI 60 cell line screen, Ovarian; assay type: cell-based, human
SR = assay: NCI 60 cell line screen, Leukaemia; assay type: cell-based, human
OVCAR-3 = assay: NCI 60 cell line screen, Ovarian; assay type: cell-based, human
KM12 = assay: NCI 60 cell line screen, Colon; assay type: cell-based, human

Q: For `COc1ccc(C2C(F)C(=O)N2c2cc(OC)c(OC)c(OC)c2)cc1F` (stereo not drawn) [Compound 33, 3-Fluoro-4-(3-fluoro-4-methoxyphenyl)-1-(3,4,5-trimethoxyphenyl)azetidin-2-one], which TGI (UACC-257; 5-dose, 48 h) is on record?
A: >100000 nM

Q: What about the GI50 (UACC-257; Homo sapiens, 5-dose, 48 h) of the same compound?
A: > 100000 nM

Q: What about the inhibition at 10 µM (UACC-257; Homo sapiens, one dose 10 µM) of the same compound?
A: 61.3%

Q: And the Growth % (UACC-257; one dose 10 µM)?
A: 38.74%

Q: What about the TGI (SF-268; 5-dose, 48 h) of the same compound?
A: >100000 nM

Q: And the GI50 (SF-268; Homo sapiens, 5-dose, 48 h)?
A: 324 nM

Q: What about the inhibition at 10 µM (SF-268; Homo sapiens, one dose 10 µM) of the same compound?
A: 66.9%

Q: What about the Growth % (SF-268; one dose 10 µM) of the same compound?
A: 33.13%

Q: What about the TGI (SK-MEL-5; 5-dose, 48 h) of the same compound?
A: 350 nM

Q: What about the GI50 (SK-MEL-5; Homo sapiens, 5-dose, 48 h) of the same compound?
A: 45.6 nM

Q: What about the CC50 (SK-MEL-5; Homo sapiens, 5-dose, 48 h, read-out: LC50 (the source's name)) of the same compound?
A: 91300 nM

Q: And the inhibition at 10 µM (SK-MEL-5; Homo sapiens, one dose 10 µM)?
A: 131%

Q: What about the Growth % (SK-MEL-5; one dose 10 µM) of the same compound?
A: -31.46%

Q: And the TGI (DU-145; 5-dose, 48 h)?
A: >100000 nM

Q: What about the GI50 (DU-145; Homo sapiens, 5-dose, 48 h) of the same compound?
A: 269 nM

Q: And the inhibition at 10 µM (DU-145; Homo sapiens, one dose 10 µM)?
A: 90.5%

Q: And the Growth % (DU-145; one dose 10 µM)?
A: 9.46%

Q: What about the TGI (HOP-92; 5-dose, 48 h) of the same compound?
A: 63900 nM

Q: What about the GI50 (HOP-92; Homo sapiens, 5-dose, 48 h) of the same compound?
A: 266 nM

Q: What about the inhibition at 10 µM (HOP-92; Homo sapiens, one dose 10 µM) of the same compound?
A: 67.7%

Q: And the Growth % (HOP-92; one dose 10 µM)?
A: 32.28%

Q: And the TGI (SF-539; 5-dose, 48 h)?
A: 217 nM

Q: And the GI50 (SF-539; Homo sapiens, 5-dose, 48 h)?
A: 28 nM

Q: And the inhibition at 10 µM (SF-539; Homo sapiens, one dose 10 µM)?
A: 95.8%

Q: What about the Growth % (SF-539; one dose 10 µM) of the same compound?
A: 4.17%

Q: What about the GI50 (RXF 393; 5-dose, 48 h) of the same compound?
A: 39.8 nM

Q: What about the TGI (RXF 393; 5-dose, 48 h) of the same compound?
A: 60000 nM

Q: And the GI50 (RXF 393; Homo sapiens, RXF 393, 48 h, 5-dose, 48 h)?
A: 39 nM

Q: What about the inhibition at 10 µM (RXF 393; Homo sapiens, one dose 10 µM) of the same compound?
A: 71.2%

Q: And the Growth % (RXF 393; one dose 10 µM)?
A: 28.8%

Q: And the TGI (SK-MEL-28; 5-dose, 48 h)?
A: >100000 nM

Q: And the GI50 (SK-MEL-28; Homo sapiens, 5-dose, 48 h)?
A: 15800 nM

Q: What about the inhibition at 10 µM (SK-MEL-28; Homo sapiens, one dose 10 µM) of the same compound?
A: 42.3%

Q: What about the Growth % (SK-MEL-28; one dose 10 µM) of the same compound?
A: 57.74%

Q: What about the TGI (MALME-3M; 5-dose, 48 h) of the same compound?
A: >100000 nM

Q: And the inhibition at 10 µM (MALME-3M; Homo sapiens, one dose 10 µM)?
A: 26%

Q: And the Growth % (MALME-3M; one dose 10 µM)?
A: 74.02%

Q: What about the TGI (BT-549; 5-dose, 48 h) of the same compound?
A: 33800 nM

Q: And the GI50 (BT-549; Homo sapiens, 5-dose, 48 h)?
A: 49.8 nM

Q: What about the inhibition at 10 µM (BT-549; Homo sapiens, one dose 10 µM) of the same compound?
A: 84.7%

Q: What about the Growth % (BT-549; one dose 10 µM) of the same compound?
A: 15.26%

Q: What about the inhibition at 10 µM (leukaemia panel) of the same compound?
A: 90.6%

Q: What about the TGI (NCI-H460; 5-dose, 48 h) of the same compound?
A: 91100 nM

Q: And the GI50 (NCI-H460; Homo sapiens, 5-dose, 48 h)?
A: 356 nM

Q: And the inhibition at 10 µM (NCI-H460; Homo sapiens, one dose 10 µM)?
A: 92.9%

Q: What about the Growth % (NCI-H460; one dose 10 µM) of the same compound?
A: 7.06%

Q: And the TGI (HT29; 5-dose, 48 h)?
A: >100000 nM

Q: What about the GI50 (HT29; Homo sapiens, HT-29, 5-dose, 48 h) of the same compound?
A: 134 nM

Q: And the inhibition at 10 µM (HT29; Homo sapiens, HT-29, one dose 10 µM)?
A: 96.3%

Q: What about the Growth % (HT29; one dose 10 µM) of the same compound?
A: 3.73%

Q: What about the TGI (SK-OV-3; 5-dose, 48 h) of the same compound?
A: >100000 nM

Q: And the GI50 (SK-OV-3; Homo sapiens, 5-dose, 48 h)?
A: 3450 nM

Q: And the inhibition at 10 µM (SK-OV-3; Homo sapiens, one dose 10 µM)?
A: 66.6%

Q: And the Growth % (SK-OV-3; one dose 10 µM)?
A: 33.36%

Q: What about the TGI (SR; 5-dose, 48 h) of the same compound?
A: >100000 nM

Q: And the GI50 (SR; Homo sapiens, 5-dose, 48 h)?
A: 40.8 nM

Q: And the inhibition at 10 µM (SR; Homo sapiens, one dose 10 µM)?
A: 86.7%

Q: And the Growth % (SR; one dose 10 µM)?
A: 13.28%

Q: What about the TGI (OVCAR-3; 5-dose, 48 h) of the same compound?
A: 492 nM

Q: And the GI50 (OVCAR-3; Homo sapiens, 5-dose, 48 h)?
A: 46.5 nM

Q: And the inhibition at 10 µM (OVCAR-3; Homo sapiens, one dose 10 µM)?
A: 104%

Q: And the Growth % (OVCAR-3; one dose 10 µM)?
A: -4.18%

Q: And the TGI (KM12; 5-dose, 48 h)?
A: >100000 nM

Q: What about the GI50 (KM12; Homo sapiens, 5-dose, 48 h) of the same compound?
A: 59.6 nM

Q: What about the inhibition at 10 µM (KM12; Homo sapiens, one dose 10 µM) of the same compound?
A: 89.3%

Q: What about the Growth % (KM12; one dose 10 µM) of the same compound?
A: 10.73%
